Experimental findings from patent publication US10875844B2, “Salicylate inhibitors of MELK and methods of use” (priority 2015, dated 2020) are described below.

The target in the assay is T1, MELK (Homo sapiens, UniProt Q14680).
T1 construct: purchased Life Technologies
T1 sequence (Q14680 whole entry): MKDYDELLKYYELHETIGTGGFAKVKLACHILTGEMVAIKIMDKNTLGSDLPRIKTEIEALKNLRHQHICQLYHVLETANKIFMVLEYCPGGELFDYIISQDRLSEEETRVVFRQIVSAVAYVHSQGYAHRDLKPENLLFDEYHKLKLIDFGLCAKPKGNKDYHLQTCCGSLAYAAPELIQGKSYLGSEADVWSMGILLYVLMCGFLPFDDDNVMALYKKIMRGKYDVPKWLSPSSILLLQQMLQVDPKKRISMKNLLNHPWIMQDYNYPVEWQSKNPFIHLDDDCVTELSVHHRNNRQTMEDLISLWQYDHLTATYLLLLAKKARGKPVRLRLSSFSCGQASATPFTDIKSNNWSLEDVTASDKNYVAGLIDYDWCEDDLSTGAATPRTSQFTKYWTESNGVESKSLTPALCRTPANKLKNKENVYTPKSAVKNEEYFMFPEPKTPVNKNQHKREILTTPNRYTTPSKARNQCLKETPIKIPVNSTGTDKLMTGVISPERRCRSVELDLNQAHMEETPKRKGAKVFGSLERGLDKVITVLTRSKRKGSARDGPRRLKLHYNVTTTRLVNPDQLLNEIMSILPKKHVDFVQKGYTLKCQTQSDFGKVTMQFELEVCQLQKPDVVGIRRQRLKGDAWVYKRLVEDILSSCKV
The experiment in a line: Z′-LYTE biochemical assay (Life Technologies), MELK inhibition. The procedure:
The invention also provides methods for inhibiting MELK, comprising contacting MELK with a compound of the invention in an amount effective to inhibit MELK. In certain embodiments, the method is conducted in vitro. In certain embodiments, the method is conducted in vivo. Inhibition of MELK can be determined by the Z′-LYTE® biochemical assay from Life Technologies (Life Technologies Z′-LYTE® Screening Protocol and Assay Conditions, June 2012, incorporated herein by reference).
The following compounds were made according to the general scheme shown in Example 1. IC50 against MELK was determined by Z′-LYTE® biochemical assay at 25 uM ATP concentration, and are measured in nM.
By IC50 is commonly meant the concentration that gives 50% inhibition. Lower therefore signals greater potency in that assay. As for `O=C(Nc1ccc2c(c1)CCNCC2)c1ccc(-c2cn[nH]c2)cc1OC(CN1CCCC1)c1ccccc1` (centres unmarked), the midpoint of inhibition, the IC50, lay at 213 nM.
The result for `O=C(Nc1ccc2c(c1)CCNCC2)c1ccc(-c2cn[nH]c2)cc1OC1CCCCC1` reads 2.99 nM.
The figure for `O=C(Nc1ccc2c(c1)CCNCC2)c1ccc(-c2cc(Cl)c(O)c(Cl)c2)cc1OCc1ccccc1` [Compound 02-104, 3-(benzyloxy)-3′,5′-dichloro-4′-hydroxy-N-(2,3,4,5-tetrahydro-1H-benzo[d]azepin-7-yl)-[1,1′-biphenyl]-4-carboxamide] is 1.92 nM; for `O=C(Nc1ccc2c(c1)CCNCC2)c1ccc(-c2cn[nH]c2)cc1OCCN1CCCC1=O` it is 80.6 nM.
The result for `CC(=O)N1CCc2ccc(NC(=O)c3ccc(-c4cn[nH]c4)cc3OCc3ccccc3)cc2CC1` [Compound 02-111, N-(3-acetyl-2,3,4,5-tetrahydro-1H-benzo[d]azepin-7-yl)-2-(benzyloxy)-4-(1H-pyrazol-4-yl)benzamide] reads 60.6 nM.
As to `O=C(Nc1ccc2c(c1)CCNCC2)c1ccc(-c2cn[nH]c2)cc1OC1Cc2ccccc2C1`, 1.05 nM corresponded to half-maximal inhibition (IC50).
The result for `O=C(Nc1ccc2c(c1)CCNCC2)c1ccc(-c2cn[nH]c2)cc1OCCN1CCCC1` reads 75.1 nM.
The figure for `O=C(Nc1ccc2c(c1)CCNCC2)c1ccc(-c2cn[nH]c2)cc1OCC1CCCCC1` is 5.48 nM.
The result for `O=C(Nc1ccc2c(c1)CCNCC2)c1ccc(-c2cn[nH]c2)cc1OCc1cccnc1` reads 16.2 nM.
As for `O=C(Nc1ccc2c(c1)CCNCC2)c1ccc(-c2cn[nH]c2)cc1O`, the IC50 was determined as 68.8 nM. Against the preceding compound, the IC50 is about 4.2-fold higher.
The figure for `O=C(Nc1ccccc1)c1ccc(-c2cn[nH]c2)cc1OCc1ccccc1` is 1160 nM.
In turn, `O=C(Nc1cccc2c1CCNCC2)c1ccc(-c2cn[nH]c2)cc1OCc1ccccc1` [Compound 02-103] came in with an IC50 of 134 nM.
As to `O=C(Nc1ccc2c(c1)CCNCC2)c1ccc(-c2cn[nH]c2)cc1OCc1ccccc1` [Compound 02-102, 2-(benzyloxy)-4-(1H-pyrazol-4-yl)-N-(2,3,4,5-tetrahydro-1H-benzo[d]azepin-7-yl)benzamide], the IC50 stood at 2.17 nM. This IC50 is about 62-fold lower than that of the compound before.
The result for `O=C(Nc1ccc2c(c1)CCNCC2)c1ccc(-c2cn[nH]c2)cc1OCCN1CCOCC1` reads 85.3 nM.
